Reference: publication PMC2528936, “Snake Cathelicidin from Bungarus fasciatus Is a Potent Peptide Antibiotics” (PLoS ONE, 2008)
Values after ≈ are worked out from the molar mass of the structure shown.

Columns and labels:
[1] = tested on: K. pneumoniae standard strain; assay: MIC determination, standard strain; type: cell-based; settings: Klebsiella pneumoniae
Method: (§1) Antimicrobial activities of cathelicidin-BF and cathelicidin-BF15 ([…]) were tested according to our previous methods [39]–[42]. […] The details were provided in the Materials and Methods S1.
Standard and clinically isolated microorganism strains were used for antimicrobial assays. Bacteria were first grown in LB (Luria-Bertani) broth to an OD600 nm of 0.8. A 10 µl aliquot of the bacteria was then taken and added to 8 ml of fresh LB broth with 0.7% agar and poured over a 90 mm Petri dish containing 25 ml of 1.5% agar in LB broth. After the top agar hardened, a 20 µl aliquot of the test sample filtered on a 0.22 µm Millipore filter was dropped onto the surface of the top agar and completely dried before being incubated overnight at 37 °C. If the sample examined had antimicrobial activity, a clear zone would be formed on the surface of the top agar representing inhibition of bacterial growth. Minimal inhibitory concentration (MIC) was determined in liquid LB medium by incubating the bacteria in LB broth with variable amounts of the sample tested. The MIC at which no visible growth occurred was recorded. In the assays of anti-fungi activity, for strains of Aspergillus terreus, A. niculans, and Chaetomium globosum, the fungal spore concentration was first counted under a microscope. […]

[2] = tested on: Aspergillus niculans; settings: saprophytic fungus; 10^5 spores/ml, yeast extract-peptone-dextrose broth; mean of three independent experiments in duplicates; ND = no detectable activity
Method: as §1
(§2) Standard and clinically isolated microorganism strains were used for antimicrobial assays. Bacteria were first grown in LB (Luria-Bertani) broth to an OD600 nm of 0.8. A 10 µl aliquot of the bacteria was then taken and added to 8 ml of fresh LB broth with 0.7% agar and poured over a 90 mm Petri dish containing 25 ml of 1.5% agar in LB broth. After the top agar hardened, a 20 µl aliquot of the test sample filtered on a 0.22 µm Millipore filter was dropped onto the surface of the top agar and completely dried before being incubated overnight at 37 °C. If the sample examined had antimicrobial activity, a clear zone would be formed on the surface of the top agar representing inhibition of bacterial growth. Minimal inhibitory concentration (MIC) was determined in liquid LB medium by incubating the bacteria in LB broth with variable amounts of the sample tested. The MIC at which no visible growth occurred was recorded. In the assays of anti-fungi activity, for strains of Aspergillus terreus, A. niculans, and Chaetomium globosum, the fungal spore concentration was first counted under a microscope. The fungi with an initial concentration of 10^5 spores/ml were cultured with variable amounts of the sample tested in yeast extract-peptone-dextrose broth.

[3] = tested on: Aspergillus terreus GIM3.34; settings: saprophytic fungus; 10^5 spores/ml, yeast extract-peptone-dextrose broth; mean of three independent experiments in duplicates; ND = no detectable activity
Method: as §1, §2

[4] = tested on: Chaetomium globosum; settings: saprophytic fungus; 10^5 spores/ml, yeast extract-peptone-dextrose broth; mean of three independent experiments in duplicates; ND = no detectable activity
Method: as §1, §2

[5] = tested on: Pseudomonas aeruginosa ATCC27853; assay: microbe, parasite or virus in culture; settings: Pseudomonas aeruginosa, ATCC27853
Method: as §1, §2

[6] = tested on: Bacillus subtilis; assay: microbe, parasite or virus in culture; settings: Bacillus subtilis
Method: as §1, §2

[7] = tested on: Bacillus pumilus; assay: microbe, parasite or virus in culture; settings: Bacillus pumilus
Method: as §1, §2

[8] = tested on: Escherichia coliATCC25922; assay: microbe, parasite or virus in culture; settings: Escherichia, COLIATCC25922
Method: as §1, §2

[9] = tested on: Staphylococcus aureus ATCC2592; assay: microbe, parasite or virus in culture; settings: Staphylococcus aureus, ATCC2592
Method: as §1, §2

[10] = tested on: Candida albicans ATCC2002; assay: microbe, parasite or virus in culture; settings: Candida albicans
Method: as §1, §2

[11] = tested on: Bacillus cereus; assay: microbe, parasite or virus in culture; settings: Bacillus cereus
Method: as §1, §2

[12] = tested on: Acinetobacter calcoaceticus; assay: microbe, parasite or virus in culture; settings: Acinetobacter calcoaceticus
Method: as §1, §2

| SMILES | MIC [1] [µg/mL] | MIC [2] | MIC [3] | MIC [4] | MIC [5] [µg/mL] | MIC [6] [µg/mL] | MIC [7] [µg/mL] | MIC [8] [µg/mL] | MIC [9] [µg/mL] | MIC [10] [µg/mL] | MIC [11] [µg/mL] | MIC [12] [µg/mL] |
| --- | --- | --- | --- | --- | --- | --- | --- | --- | --- | --- | --- | --- |
| CC1(C)S[C@@H]2[C@H](NC(=O)Cc3ccccc3)C(=O)N2[C@H]1C(=O)O [benzylpenicillin] | 18.7 (≈ 55.9 µM) | no effect | no effect | no effect | 18.7 (≈ 55.9 µM) | 0.004 (≈ 0.012 µM) | 0.015 (≈ 0.0449 µM) | 37.5 (≈ 112 µM) | 0.03 (≈ 0.0897 µM) | 0.03 (≈ 0.0897 µM) | 150 (≈ 449 µM) | 37.5 (≈ 112 µM) |
| CC1(C)S[C@@H]2[C@H](NC(=O)[C@H](N)c3ccccc3)C(=O)N2[C@H]1C(=O)O [ampicillin] | 150 (≈ 429 µM) | no effect | no effect | no effect | 150 (≈ 429 µM) | 0.02 (≈ 0.0572 µM) | 0.15 (≈ 0.429 µM) | 18.7 (≈ 53.5 µM) | 0.15 (≈ 0.429 µM) | 0.3 (≈ 0.859 µM) | 150 (≈ 429 µM) | 75 (≈ 215 µM) |
